Each structure is given as a SMILES string. Where only a bound is given, the exact number is not on record here.

Data set [1] relates to HIV-IIIb. Nature of the data set: Test A: Antiviral assay in MT4 cells. The format is cell-based, HIV-1. The following applies: Human immunodeficiency virus 1, IIIB, MT4, 120 h, read-out: % inhibition at 2 μM, percent inhibition of virus-induced cell killing, from dose response curve at 2 uM drug; MT-4 cells infected with HIV-IIIb, 5 days, CellTiter-Glo.
Data set [2] is described as follows: in vitro. The conditions noted are these: human, uninfected MT-4 cells, CC50 (nM), same protocol as Test A, CellTiter-Glo. In outline: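 Cytoprotection read-out: CellTiter-Glo chemiluminescence after 5 days at 37 °C of HIV-IIIb-infected MT-4 cells (m.o.i. 0.003) with compound in 10-point 3-fold dilutions, quadruplicate, 10% FBS. Cytotoxicity (CC50) measured identically without virus.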

`NC(=O)c1cc(-c2cccnc2[C@H](Cc2cc(F)cc(F)c2)NC(=O)Cn2nc(C(F)F)c3c2CCCC3)ccc1F` [Example 307, (S)-5-(2-(1-(2-(3-(difluoromethyl)-4,5,6,7-tetrahydro-1H-indazol-1-yl)acetamido)-2-(3,5-difluorophenyl)ethyl)pyridin-3-yl)-2-fluorobenzamide]: the inhibition at 2 µM in data set [1] was 99%. In data set [2], this compound showed a CC50 at 5 days of 26700 nM.
The matching figures for `NC(=O)c1cc(-c2cncnc2[C@H](Cc2cc(F)cc(F)c2)NC(=O)Cn2nc(C(F)F)c3c2C(F)(F)CCC3(F)F)ccc1F` [Example 308, (S)-5-(4-(1-(2-(3-(difluoromethyl)-4,4,7,7-tetrafluoro-4,5,6,7-tetrahydro-1H-indazol-1-yl)acetamido)-2-(3,5-difluorophenyl)ethyl)pyrimidin-5-yl)-2-fluorobenzamide]: 102% and 39800 nM.
The matching figures for `NC(=O)c1cc(-c2cccnc2[C@H](Cc2cc(F)cc(F)c2)NC(=O)Cn2c(=O)[nH]c3cc(Cl)c(Cl)cc32)ccc1F` [Example 309, (S)-5-(2-(1-(2-(5,6-dichloro-2-oxo-2,3-dihydro-1H-benzo[d]imidazol-1-yl)acetamido)-2-(3,5-difluorophenyl)ethyl)pyridin-3-yl)-2-fluorobenzamide]: 9% and 12000 nM.
The matching figures for `NC(=O)c1cc(-c2cccnc2[C@H](Cc2cc(F)cc(F)c2)NC(=O)Cc2c[nH]c3ccc(O)cc23)ccn1` [Example 310C, (S)-2-(2-(3,5-difluorophenyl)-1-(2-(5-hydroxy-1H-indol-3-yl)acetamido)ethyl)-3,4′-bipyridine-2′-carboxamide]: 97% and more than 53000 nM.
Consider `NC(=O)c1cc(-c2cccnc2[C@H](Cc2cc(F)cc(F)c2)NC(=O)Cn2cc(C(N)=O)c(C(F)(F)F)n2)ccc1F` [Example 312, (S)-1-(2-(1-(3-(3-carbamoyl-4-fluorophenyl)pyridin-2-yl)-2-(3,5-difluorophenyl)ethylamino)-2-oxoethyl)-3-(trifluoromethyl)-1H-pyrazole-4-carboxamide], for which the inhibition at 2 µM in data set [1] amounted to 2%. In data set [2], the CC50 at 5 days is more than 53200 nM.
The matching figures for `NC(=O)c1cccc(-c2cncnc2[C@@H](Cc2cc(F)cc(F)c2)NC(=O)Cc2c[nH]c3ccc(O)cc23)c1` [Example 313, (R)-3-(4-(2-(3,5-difluorophenyl)-1-(2-(5-hydroxy-1H-indol-3-yl)acetamido)ethyl)pyrimidin-5-yl)benzamide]: 14% and more than 53200 nM.
The matching figures for `CCNCc1cn(CC(=O)N[C@@H](Cc2cc(F)cc(F)c2)c2ncccc2-c2ccc(F)c(C(N)=O)c2)nc1C(F)(F)F` [Example 314, (S)-5-(2-(2-(3,5-difluorophenyl)-1-(2-(4-((ethylamino)methyl)-3-(trifluoromethyl)-1H-pyrazol-1-yl)acetamido)ethyl)pyridin-3-yl)-2-fluorobenzamide]: 3% and 23600 nM.
The matching figures for `NC(=O)c1cccc(-c2cccnc2[C@H](Cc2cc(F)cc(F)c2)NC(=O)Cn2c(C(F)(F)F)nc3ccc(OC(F)(F)F)cc32)c1` [Example 315, (S)-3-(2-(2-(3,5-difluorophenyl)-1-(2-(6-(trifluoromethoxy)-2-(trifluoromethyl)-1H-benzo[d]imidazol-1-yl)acetamido)ethyl)pyridin-3-yl)benzamide]: 0% and 47200 nM.
With `NC(=O)c1cc(-c2cccnc2[C@H](Cc2cc(F)cc(F)c2)NC(=O)Cn2nc(C(F)F)cc2C2CC2)ccc1F` [Example 317, (S)-5-(2-(1-(2-(5-cyclopropyl-3-(difluoromethyl)-1H-pyrazol-1-yl)acetamido)-2-(3,5-difluorophenyl)ethyl)pyridin-3-yl)-2-fluorobenzamide], the inhibition at 2 µM in data set [1] was 41%. In addition, the CC50 at 5 days in data set [2] was more than 47600 nM.

Values taken from patent publication US9540343B2 (Gilead Sciences, Inc., priority 2011, dated 2017).
